Common to all, as to experiment: Kinase selectivity, DiscoverX scanMAX Kinase assay panel (% control)
Holding throughout (type): binding

For assay [1], the target named is T1, kinases of the scanMAX Kinase assay panel (Homo sapiens, UniProt Q9BYP7).
T1 construct: purchased DiscoverX Co. (contract measurement) scanMAX Kinase assay panel
As to conditions: kinase WNK3; 1 uM in DMSO. Summed up:
(§1)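 A 1 uM DMSO solution of compound was applied across the panel kinases, and results were expressed as % control relative to DMSO (100%) and a positive control (0%).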

The target of assay [2] is T2, kinases of the scanMAX Kinase assay panel (Homo sapiens, UniProt Q9UPZ9).
T2 construct: purchased DiscoverX Co. (contract measurement) scanMAX Kinase assay panel
T2 sequence (Q9UPZ9 1-632): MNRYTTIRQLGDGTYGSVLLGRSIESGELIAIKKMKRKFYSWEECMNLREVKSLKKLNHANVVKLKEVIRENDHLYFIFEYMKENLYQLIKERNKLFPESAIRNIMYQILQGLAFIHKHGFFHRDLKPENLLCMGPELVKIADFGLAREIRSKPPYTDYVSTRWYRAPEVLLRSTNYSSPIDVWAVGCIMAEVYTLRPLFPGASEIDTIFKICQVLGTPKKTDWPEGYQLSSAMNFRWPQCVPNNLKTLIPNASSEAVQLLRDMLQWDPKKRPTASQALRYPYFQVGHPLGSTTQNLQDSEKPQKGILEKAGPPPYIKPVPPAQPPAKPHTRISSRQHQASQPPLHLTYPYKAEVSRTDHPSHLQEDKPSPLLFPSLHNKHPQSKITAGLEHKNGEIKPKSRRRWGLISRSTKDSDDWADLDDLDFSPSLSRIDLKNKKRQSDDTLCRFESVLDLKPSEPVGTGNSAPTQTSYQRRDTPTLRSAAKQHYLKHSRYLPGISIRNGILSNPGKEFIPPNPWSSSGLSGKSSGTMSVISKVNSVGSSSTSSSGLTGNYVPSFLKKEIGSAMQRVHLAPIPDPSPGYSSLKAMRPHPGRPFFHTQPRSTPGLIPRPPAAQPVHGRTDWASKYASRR
The following applies: ICK; 1 uM. Summed up:
as §1

Assay [3] deals with T3, kinases of the scanMAX Kinase assay panel (Homo sapiens, UniProt Q8IYT8).
T3 construct: purchased DiscoverX Co. (contract measurement) scanMAX Kinase assay panel
T3 sequence (Q8IYT8 1-1036): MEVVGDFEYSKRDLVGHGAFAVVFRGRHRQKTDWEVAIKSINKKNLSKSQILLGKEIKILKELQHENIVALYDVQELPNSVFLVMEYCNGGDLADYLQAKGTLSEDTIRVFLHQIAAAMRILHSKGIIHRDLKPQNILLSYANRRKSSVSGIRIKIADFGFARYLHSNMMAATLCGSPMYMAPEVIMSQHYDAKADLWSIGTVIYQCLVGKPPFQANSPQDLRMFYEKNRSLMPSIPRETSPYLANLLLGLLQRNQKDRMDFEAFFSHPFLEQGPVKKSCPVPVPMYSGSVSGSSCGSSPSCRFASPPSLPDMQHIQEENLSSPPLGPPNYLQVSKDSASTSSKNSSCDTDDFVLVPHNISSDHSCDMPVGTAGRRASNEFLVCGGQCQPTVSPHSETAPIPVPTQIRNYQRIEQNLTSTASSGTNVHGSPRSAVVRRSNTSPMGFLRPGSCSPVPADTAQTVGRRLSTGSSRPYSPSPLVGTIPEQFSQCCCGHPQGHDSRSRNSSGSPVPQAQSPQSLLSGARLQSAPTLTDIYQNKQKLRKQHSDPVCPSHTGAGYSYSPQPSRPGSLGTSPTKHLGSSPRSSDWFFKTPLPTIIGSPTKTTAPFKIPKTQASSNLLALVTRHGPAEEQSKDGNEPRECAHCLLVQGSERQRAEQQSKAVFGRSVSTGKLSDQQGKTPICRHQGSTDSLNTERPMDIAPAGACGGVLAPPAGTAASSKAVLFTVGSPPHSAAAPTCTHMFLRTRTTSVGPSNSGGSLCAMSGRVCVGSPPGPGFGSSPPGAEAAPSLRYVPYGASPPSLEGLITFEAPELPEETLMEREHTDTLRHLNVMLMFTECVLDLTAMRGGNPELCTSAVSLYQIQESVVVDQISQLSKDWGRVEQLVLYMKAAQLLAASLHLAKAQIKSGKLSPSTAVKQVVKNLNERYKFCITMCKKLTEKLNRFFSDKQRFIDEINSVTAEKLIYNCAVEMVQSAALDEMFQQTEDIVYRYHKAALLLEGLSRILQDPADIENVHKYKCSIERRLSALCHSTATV
As to conditions: kinase ULK2; 1 uM in DMSO. Summed up: as §1

In assay [4] the target is T4, kinases of the scanMAX Kinase assay panel (Homo sapiens, UniProt Q5S007).
T4 construct: purchased DiscoverX Co. (contract measurement) scanMAX Kinase assay panel
The following applies: LRRK2; 1 uM. An outline of the steps: as §1

Molecules are shown by their SMILES.

T4 sequence (Q5S007 whole entry): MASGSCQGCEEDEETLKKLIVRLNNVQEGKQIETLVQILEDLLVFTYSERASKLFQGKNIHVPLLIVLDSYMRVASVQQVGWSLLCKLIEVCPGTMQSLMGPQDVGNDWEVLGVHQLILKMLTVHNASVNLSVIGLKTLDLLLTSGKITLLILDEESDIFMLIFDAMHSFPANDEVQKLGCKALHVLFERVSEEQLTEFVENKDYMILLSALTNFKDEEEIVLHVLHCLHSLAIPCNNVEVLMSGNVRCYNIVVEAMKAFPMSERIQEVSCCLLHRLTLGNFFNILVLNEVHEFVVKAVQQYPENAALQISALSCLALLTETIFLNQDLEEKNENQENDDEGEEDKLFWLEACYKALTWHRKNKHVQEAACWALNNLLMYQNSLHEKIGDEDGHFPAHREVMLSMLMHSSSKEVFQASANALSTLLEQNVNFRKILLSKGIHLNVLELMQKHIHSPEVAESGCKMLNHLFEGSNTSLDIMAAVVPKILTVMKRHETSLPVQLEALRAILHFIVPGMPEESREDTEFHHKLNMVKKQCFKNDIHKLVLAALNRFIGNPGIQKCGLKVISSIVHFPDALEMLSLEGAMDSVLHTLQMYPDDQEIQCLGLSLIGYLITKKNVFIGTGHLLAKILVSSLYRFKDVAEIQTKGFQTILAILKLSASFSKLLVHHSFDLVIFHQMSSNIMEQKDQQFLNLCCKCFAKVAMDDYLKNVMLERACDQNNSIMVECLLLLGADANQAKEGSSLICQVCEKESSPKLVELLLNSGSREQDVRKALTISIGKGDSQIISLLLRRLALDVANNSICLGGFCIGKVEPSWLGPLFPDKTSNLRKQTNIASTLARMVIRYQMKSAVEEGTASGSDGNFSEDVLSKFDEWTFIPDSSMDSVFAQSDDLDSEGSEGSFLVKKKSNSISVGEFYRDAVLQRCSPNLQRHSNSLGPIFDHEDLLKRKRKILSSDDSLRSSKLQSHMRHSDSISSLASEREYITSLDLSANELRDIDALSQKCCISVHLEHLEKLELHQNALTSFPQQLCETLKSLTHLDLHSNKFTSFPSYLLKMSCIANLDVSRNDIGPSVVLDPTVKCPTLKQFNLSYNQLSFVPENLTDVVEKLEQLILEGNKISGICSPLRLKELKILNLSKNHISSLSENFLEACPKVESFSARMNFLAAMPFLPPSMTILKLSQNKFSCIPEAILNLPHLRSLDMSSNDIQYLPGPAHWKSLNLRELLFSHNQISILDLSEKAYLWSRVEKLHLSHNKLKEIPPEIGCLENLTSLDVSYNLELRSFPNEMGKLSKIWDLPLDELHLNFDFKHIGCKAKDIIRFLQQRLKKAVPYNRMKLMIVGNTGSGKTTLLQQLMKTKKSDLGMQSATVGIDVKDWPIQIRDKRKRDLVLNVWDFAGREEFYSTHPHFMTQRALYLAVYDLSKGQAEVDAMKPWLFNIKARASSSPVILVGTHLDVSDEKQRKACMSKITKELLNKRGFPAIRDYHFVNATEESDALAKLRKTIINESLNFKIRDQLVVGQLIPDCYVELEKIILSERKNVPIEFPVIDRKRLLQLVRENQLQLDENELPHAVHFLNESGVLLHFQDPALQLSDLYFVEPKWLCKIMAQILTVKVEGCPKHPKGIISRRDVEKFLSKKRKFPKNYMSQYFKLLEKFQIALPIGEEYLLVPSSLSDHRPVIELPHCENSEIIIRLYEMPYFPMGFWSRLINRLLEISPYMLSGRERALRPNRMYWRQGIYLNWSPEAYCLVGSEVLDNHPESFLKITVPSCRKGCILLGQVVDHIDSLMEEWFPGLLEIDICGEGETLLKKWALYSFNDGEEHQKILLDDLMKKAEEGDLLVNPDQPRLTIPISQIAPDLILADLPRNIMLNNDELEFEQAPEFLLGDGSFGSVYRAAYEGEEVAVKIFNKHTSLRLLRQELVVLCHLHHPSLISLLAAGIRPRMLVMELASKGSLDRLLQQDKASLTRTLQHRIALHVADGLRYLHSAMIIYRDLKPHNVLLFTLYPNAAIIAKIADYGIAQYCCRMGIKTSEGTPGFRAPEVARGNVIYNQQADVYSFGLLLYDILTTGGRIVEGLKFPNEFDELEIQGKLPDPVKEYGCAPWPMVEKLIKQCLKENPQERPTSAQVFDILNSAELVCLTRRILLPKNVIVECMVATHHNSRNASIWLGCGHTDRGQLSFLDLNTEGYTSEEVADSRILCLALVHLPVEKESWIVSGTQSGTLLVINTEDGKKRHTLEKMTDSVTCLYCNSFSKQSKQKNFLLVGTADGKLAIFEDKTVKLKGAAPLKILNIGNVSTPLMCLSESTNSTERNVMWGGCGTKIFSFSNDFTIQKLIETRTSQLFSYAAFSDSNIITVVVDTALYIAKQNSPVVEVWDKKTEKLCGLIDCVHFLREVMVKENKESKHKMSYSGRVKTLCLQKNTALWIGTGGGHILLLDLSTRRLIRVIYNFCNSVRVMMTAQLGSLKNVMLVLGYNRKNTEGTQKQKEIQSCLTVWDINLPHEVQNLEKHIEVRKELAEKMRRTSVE
T1 sequence (Q9BYP7 whole entry): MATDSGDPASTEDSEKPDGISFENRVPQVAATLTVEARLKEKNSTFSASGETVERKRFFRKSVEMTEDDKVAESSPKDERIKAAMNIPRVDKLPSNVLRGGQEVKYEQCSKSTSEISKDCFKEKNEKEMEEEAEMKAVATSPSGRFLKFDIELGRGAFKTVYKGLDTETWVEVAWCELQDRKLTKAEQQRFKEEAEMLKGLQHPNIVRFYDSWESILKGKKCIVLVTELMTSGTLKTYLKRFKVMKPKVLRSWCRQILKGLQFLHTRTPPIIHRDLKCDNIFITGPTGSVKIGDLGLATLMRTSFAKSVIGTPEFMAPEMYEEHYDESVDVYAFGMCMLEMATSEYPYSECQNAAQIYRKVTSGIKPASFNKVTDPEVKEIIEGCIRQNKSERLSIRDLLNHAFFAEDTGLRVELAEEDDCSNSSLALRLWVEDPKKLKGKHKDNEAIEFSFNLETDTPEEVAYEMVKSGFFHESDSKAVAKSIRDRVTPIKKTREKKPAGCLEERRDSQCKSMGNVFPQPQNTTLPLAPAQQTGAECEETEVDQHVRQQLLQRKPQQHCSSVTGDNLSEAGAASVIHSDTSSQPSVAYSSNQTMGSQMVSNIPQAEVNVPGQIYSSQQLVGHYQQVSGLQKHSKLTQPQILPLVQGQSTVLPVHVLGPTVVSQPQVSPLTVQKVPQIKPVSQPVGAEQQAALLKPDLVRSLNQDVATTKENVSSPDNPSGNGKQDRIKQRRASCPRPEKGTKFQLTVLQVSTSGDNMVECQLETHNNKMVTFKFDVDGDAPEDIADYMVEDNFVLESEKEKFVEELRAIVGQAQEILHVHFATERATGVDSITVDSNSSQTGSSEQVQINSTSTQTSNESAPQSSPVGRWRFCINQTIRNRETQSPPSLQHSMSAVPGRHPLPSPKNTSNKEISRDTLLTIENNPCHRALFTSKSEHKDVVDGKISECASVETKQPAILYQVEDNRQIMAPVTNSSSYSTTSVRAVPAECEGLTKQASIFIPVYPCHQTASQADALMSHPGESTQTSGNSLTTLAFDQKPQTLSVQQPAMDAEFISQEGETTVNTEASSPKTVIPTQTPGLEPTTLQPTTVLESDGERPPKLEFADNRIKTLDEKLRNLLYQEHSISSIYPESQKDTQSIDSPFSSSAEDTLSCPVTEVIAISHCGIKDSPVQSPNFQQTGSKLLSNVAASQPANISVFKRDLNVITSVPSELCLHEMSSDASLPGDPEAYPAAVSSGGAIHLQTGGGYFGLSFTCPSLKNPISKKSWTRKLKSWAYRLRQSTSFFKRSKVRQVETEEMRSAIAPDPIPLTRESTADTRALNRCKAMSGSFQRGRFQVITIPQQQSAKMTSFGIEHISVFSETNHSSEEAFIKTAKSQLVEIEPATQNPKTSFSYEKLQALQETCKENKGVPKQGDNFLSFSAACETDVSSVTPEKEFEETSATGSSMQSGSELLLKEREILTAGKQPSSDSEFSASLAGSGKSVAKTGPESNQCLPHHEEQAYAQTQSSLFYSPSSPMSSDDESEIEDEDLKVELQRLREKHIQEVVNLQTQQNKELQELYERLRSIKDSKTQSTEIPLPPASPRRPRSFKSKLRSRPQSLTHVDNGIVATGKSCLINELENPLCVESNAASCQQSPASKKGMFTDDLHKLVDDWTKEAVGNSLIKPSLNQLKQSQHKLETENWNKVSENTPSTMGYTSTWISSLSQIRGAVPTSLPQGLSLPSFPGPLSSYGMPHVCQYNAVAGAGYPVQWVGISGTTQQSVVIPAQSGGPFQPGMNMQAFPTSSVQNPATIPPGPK

Consider `CNc1nc(Nc2ccc(C(=O)N3CCOCC3)cc2OC)nc2[nH]cc(C#N)c12` [Example 1, 2-((2-methoxy-4-(morpholine-4-carbonyl)phenyl)amino)-4-(methylamino)-7H-pyrrolo[2,3-d]pyrimidine-5-carbonitrile], for which the remaining binding at 1 µM in assay [1] is 68%; in assay [2], 73%; in assay [3] it was 75%; in assay [4] it was 0%.
For `CC1(Nc2nc(Nc3cnn([C@H]4CCN(C5COC5)C[C@@H]4F)c3Cl)nc3[nH]cc(C#N)c23)CC1` [Example 52, 2-((5-chloro-1-((3S,4S)-3-fluoro-1-(oxetane-3-yl)piperidine-4-yl)-1H-pyrazole-4-yl)amino)((1-methylcyclopropyl)amino)-7H-pyrrolo[2,3-d]pyrimidine-5-carbonitrile], the remaining binding at 1 µM in assay [1] turned out to be 55%; in assay [2] it was 71%; in assay [3], 15%; in assay [4] it was 0%.
With `CCNc1nc(Nc2ccc(C(=O)N3CCC(N4CCOCC4)CC3)cc2OC)nc2[nH]cc(C(F)(F)F)c12` [Example 104, (4-((4-(ethylamino)-5-(trifluoromethyl)-7H-pyrrolo[2,3-d]pyrimidine-2-yl)amino)-3-methoxyphenyl)(4-morpholinopiperidine-1-yl)methanone], the remaining binding at 1 µM in assay [1] amounted to 100%; in assay [2], 96%; in assay [3], 100%; in assay [4] it was 1.2%.
